How the values were obtained:
[1] = target: T1, human NPY Y5 receptor (Homo sapiens, UniProt Q15761); experiment: Affinity for NPY Y5 receptor ([125I] peptide YY binding, CHO cell membranes); conditions: inhibition of specific [125I] peptide YY binding, membranes of CHO cells expressing NPY Y5 receptor
T1 construct: expressed in transfected cells
T1 sequence (Q15761 1-445): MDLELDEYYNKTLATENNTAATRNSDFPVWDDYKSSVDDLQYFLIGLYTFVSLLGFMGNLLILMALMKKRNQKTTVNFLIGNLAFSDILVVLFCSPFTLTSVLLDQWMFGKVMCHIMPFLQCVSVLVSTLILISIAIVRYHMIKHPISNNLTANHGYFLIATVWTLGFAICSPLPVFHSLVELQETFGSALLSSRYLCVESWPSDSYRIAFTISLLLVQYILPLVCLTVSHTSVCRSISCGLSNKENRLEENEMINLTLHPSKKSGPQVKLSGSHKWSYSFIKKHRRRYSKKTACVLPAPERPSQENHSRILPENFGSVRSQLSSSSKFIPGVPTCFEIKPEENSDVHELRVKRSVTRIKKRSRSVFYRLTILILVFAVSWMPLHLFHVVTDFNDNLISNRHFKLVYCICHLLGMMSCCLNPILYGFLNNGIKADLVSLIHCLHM
Text: Experiment 1 Affinity for NPY Y5 Receptor
cDNA sequence encoding a human NPY Y5 receptor (WO096/16542) was cloned in the expression vector pME18S (Takebe et al. Mol. Cell. Biol. 8, 8957). The obtained expression vector was transfected into a host CHO cells by using a Lipofect AMINE reagent (Trademark, Gibco BRL Co., Ltd.) according to an instruction protocol to obtain the cells that stably express NPY Y5 receptor.
The membranes prepared from the above CHO cells expressing NPY Y5 receptor, the compound of the present invention and 30,000 cpm [^125I] peptide YY (60 pM of final concentration: Amersham) were incubated in the assay buffer (20 mM HEPES-Hanks buffer containing 0.1% bovine serum albumin, pH 7.4) at 25° C. for 2 hours, and then the mixture was filtered with a glassfilter GF/C treated with polyethyleneimine. After the glassfilter was washed with 50 mM Tris-HCl buffer (pH 7.4), the radioactivity on the filter was measured with a gamma counter. The non-specific binding was detected in the presence of 200 nM of peptide YY. The 50% inhibitory concentration of the test compound against the specific peptide YY binding (IC50 value) was calculated (Inui, A. et al. Endocrinology 131, 2090-2096 (1992)).

[2] = target: T1, human NPY Y5 receptor; experiment: cAMP production inhibitory activity in CHO cells; format: cell-based; conditions: against 50 nM NPY inhibition of forskolin stimulated cAMP, CHO cells expressing human NPY Y5 receptor
Procedure: Experiment 2 cAMP production inhibitory activity in CHO cells
After CHO cells expressing human NPY Y5 receptor were incubated in the presence of 2.5 mM isobutylmethylxanthine (SIGMA) at 37° C. for 20 min., the compound of the present invention was added and incubated for 5 min. Then, 50 nM NPY and 10 μM forskolin (SIGMA) were added to the cells and incubated for 30 min. After the reaction was terminated by adding 1N HCl, the amount of cAMP in the supernatant was measured with EIA kit (Amersham LIFE SCIENCE).

| IC50 [1] [nM] | IC50 [2] [nM] | SMILES |
| --- | --- | --- |
| 1.7 | 29 | CSc1sc(C(=O)NNC(=O)C2CCC(NS(=O)(=O)C(C)(C)C)CC2)c2c1C(O)CCC2 (stereo not drawn) [Compound I-153] |
| 0.81 | 17 | CC(C)(C)S(=O)(=O)NC1CCC(C(=O)Nc2ccc3c(c2)CCC3=O)CC1 (stereo not drawn) [Compound I-156] |
| 0.61 | 8.8 | CCOc1cccc(NC(=O)C2CCC(NS(=O)(=O)C(C)(C)C)CC2)c1 (stereo not drawn) [Compound I-160] |
| 0.49 | 3.1 | CCCCOc1cccc(NC(=O)C2CCC(NS(=O)(=O)C(C)(C)C)CC2)c1 (stereo not drawn) [Compound I-161] |
| 1.7 | 32 | COCOc1cccc(NC(=O)C2CCC(NS(=O)(=O)C(C)(C)C)CC2)c1 (stereo not drawn) [Compound I-162] |
| 2.3 | 83 | CC(C)(C)S(=O)(=O)NC1CCC(C(=O)Nc2cccc(O)c2)CC1 (stereo not drawn) [Compound I-163] |
| 0.71 | 5.9 | CCCCOc1ccc(NC(=O)C2CCC(NS(=O)(=O)C(C)(C)C)CC2)cc1 (stereo not drawn) [Compound I-164] |
| 0.44 | 47 | CCCCOc1ccc(NC(=O)C2CCC(NS(=O)(=O)C(C)(C)C)CC2)c(O)c1 (stereo not drawn) [Compound I-165] |
| 0.37 | 9.7 | CCCCOc1ccc(NC(=O)C2CCC(NS(=O)(=O)C(C)(C)C)CC2)cc1O (stereo not drawn) [Compound I-166] |
| 0.72 | 39 | CCCCOc1ccc(NC(=O)C2CCC(NS(=O)(=O)C(C)(C)C)CC2)cn1 (stereo not drawn) [Compound I-167] |
| 2.1 | 32 | CC(C)(C)S(=O)(=O)NC1CCC(C(=O)Nc2ccc(Oc3ccccc3)nc2)CC1 (stereo not drawn) [Compound I-168] |
| 2.4 | 71 | CCCCOc1ccc(NC(=O)C2CCC(NS(=O)(=O)C(C)(C)C)CC2)c([N+](=O)[O-])c1 (stereo not drawn) [Compound I-171] |
| 0.91 | 36 | CCCCOc1ccc(NC(=O)C2CCC(NS(=O)(=O)C(C)(C)C)CC2)c(N)c1 (stereo not drawn) [Compound I-172] |
| 0.58 | 13 | CCCCOc1cccc(CNC(=O)C2CCC(NS(=O)(=O)C(C)(C)C)CC2)c1 (stereo not drawn) [Compound I-187] |
| 1.1 | 11 | CCCCOc1cccc(CONC(=O)C2CCC(NS(=O)(=O)C(C)(C)C)CC2)c1 (stereo not drawn) [Compound I-191] |
| 1.4 | 6.8 | CCOc1ccc(NC(=O)C2CCC(NS(=O)(=O)C(C)(C)C)CC2)cc1OCC (stereo not drawn) [Compound I-196] |
| 6.7 | 38 | CC(=O)c1cccc(NC(=O)C2CCC(NS(=O)(=O)C(C)(C)C)CC2)c1 (stereo not drawn) [Compound I-197] |
| 7.2 | 33 | CC(C)(C)S(=O)(=O)NC1CCC(C(=O)Nc2ccc3c(c2)CCC3=NO)CC1 (stereo not drawn) [Compound I-198] |
| 4.8 | 31 | CC(C)(C)S(=O)(=O)NC1CCC(C(=O)Nc2cccc(N3CCOCC3)c2)CC1 (stereo not drawn) [Compound I-199] |
| 6.7 | 67 | CC(C)(C)S(=O)(=O)NC1CCC(C(=O)Nc2ccc3c(c2)OCCO3)CC1 (stereo not drawn) [Compound I-202] |
| 5.9 | 54 | CC(C)(C)S(=O)(=O)NC1CCC(C(=O)Nc2ccc(Cc3ccncc3)cc2)CC1 (stereo not drawn) [Compound I-206] |
| 4.6 | 23 | CC(C)(C)S(=O)(=O)NC1CCC(C(=O)Nc2ccc3ncsc3c2)CC1 (stereo not drawn) [Compound I-207] |
| 1.1 | 13 | CC(C)(C)S(=O)(=O)NC1CCC(C(=O)Nc2ccc3sccc3c2)CC1 (stereo not drawn) [Compound I-210] |
| 0.44 | 4 | CC(C)(C)S(=O)(=O)NC1CCC(C(=O)Nc2nnc(-c3ccc(F)cc3)s2)CC1 (stereo not drawn) [Compound I-213] |

Further lines, the compound ahead of its results:

| SMILES | IC50 [1] [nM] | IC50 [2] [nM] |
| --- | --- | --- |
| C[C@@H]1CN(c2cccc(NC(=O)C3CCC(NS(=O)(=O)C(C)(C)C)CC3)c2)C[C@H](C)O1 (stereo partly drawn) [Ia-4] | 1.4 | 15 |
| Cc1ccc(NC(=O)C2CCC(NS(=O)(=O)C(C)(C)C)CC2)cc1 (stereo not drawn) [Ia-8] | 2.9 | 34 |
| CCc1ccc(NC(=O)C2CCC(NS(=O)(=O)C(C)(C)C)CC2)cc1 (stereo not drawn) [Ia-9] | 0.94 | 11 |
| CCCc1ccc(NC(=O)C2CCC(NS(=O)(=O)C(C)(C)C)CC2)cc1 (stereo not drawn) [Ia-10] | 0.47 | 2.7 |
| CC(C)c1ccc(NC(=O)C2CCC(NS(=O)(=O)C(C)(C)C)CC2)cc1 (stereo not drawn) [Ia-11] | 0.64 | 7.2 |
| CC(C)(C)c1ccc(NC(=O)C2CCC(NS(=O)(=O)C(C)(C)C)CC2)cc1 (stereo not drawn) [Ia-13] | 1.5 | 3.3 |
| CC(C)(C)S(=O)(=O)NC1CCC(C(=O)Nc2ccc(Cl)cc2)CC1 (stereo not drawn) [Ia-14] | 4.8 | 28 |
| CC(C)(C)S(=O)(=O)NC1CCC(C(=O)Nc2ccc(F)c(F)c2F)CC1 (stereo not drawn) [Ia-24] | 5.2 | 74 |
| C[C@@H]1CN(c2ccc(NC(=O)C3CCC(NS(=O)(=O)C(C)(C)C)CC3)cc2Cl)C[C@H](C)O1 (stereo partly drawn) [Ia-25] | 1.1 | 18 |
| COc1ccc(NC(=O)C2CCC(NS(=O)(=O)C(C)(C)C)CC2)cc1F (stereo not drawn) [Ia-36] | 1.6 | 86 |
| C[C@@H]1C[C@@H](C)CN(c2ccc(NC(=O)C3CCC(NS(=O)(=O)C(C)(C)C)CC3)cc2)C1 (stereo partly drawn) [Ia-38] | 1 | 2.2 |
| CC(C)(C)S(=O)(=O)NC1CCC(C(=O)Nc2cccc(Cl)c2)CC1 (stereo not drawn) [Ia-41] | 2.5 | 9 |
| C[C@@H]1CN(c2ccc(NC(=O)C3CCC(NS(=O)(=O)C(C)(C)C)CC3)cc2)C[C@@H](C)O1 (stereo partly drawn) [Ia-42] | 3.6 | 20 |
| C[C@@H]1CN(S(=O)(=O)c2ccc(NC(=O)C3CCC(NS(=O)(=O)C(C)(C)C)CC3)cc2)C[C@H](C)O1 (stereo partly drawn) [Ia-44] | 4.8 | 27 |
| CCOCCN(CCOCC)c1ccc(NC(=O)C2CCC(NS(=O)(=O)C(C)(C)C)CC2)cc1 (stereo not drawn) [Ia-45] | 4.8 | 42 |
| Cc1ccc2nc(-c3ccc(NC(=O)C4CCC(NS(=O)(=O)C(C)(C)C)CC4)cc3)sc2c1 (stereo not drawn) [Ia-46] | 0.87 | 8.3 |
| CC(C)[C@@H]1CN(c2ccc(NC(=O)C3CCC(NS(=O)(=O)C(C)(C)C)CC3)cc2)CCO1 (stereo partly drawn) [Ia-47] | 0.82 | 3.8 |
| CCC1(CC)CN(c2ccc(NC(=O)C3CCC(NS(=O)(=O)C(C)(C)C)CC3)cc2)CCO1 (stereo not drawn) [Ia-48] | 1.2 | 6.1 |
| CC(C)S(=O)(=O)NC1CCC(C(=O)Nc2ccc(N3C[C@@H](C)O[C@@H](C)C3)c(F)c2)CC1 (stereo partly drawn) [Ia-49] | 2.6 | 83 |
| CC(C)(C)S(=O)(=O)NC1CCC(C(=O)Nc2ccc(N3CCC(=O)CC3)cc2)CC1 (stereo not drawn) [Ia-52] | 1.9 | 22 |
| CC(C)(C)S(=O)(=O)NC1CCC(C(=O)Nc2ccc(C(=O)c3ccccc3)cc2)CC1 (stereo not drawn) [Ia-53] | 0.22 | 8.1 |
| C[C@@H]1CN(S(=O)(=O)c2cccc(NC(=O)C3CCC(NS(=O)(=O)C(C)(C)C)CC3)c2)C[C@H](C)O1 (stereo partly drawn) [Ia-55] | 1.1 | 27 |
| CC(C)(O)c1ccc(NC(=O)C2CCC(NS(=O)(=O)C(C)(C)C)CC2)cc1 (stereo not drawn) [Ia-56] | 2.3 | 96 |
| CC(O)(c1ccccc1)c1ccc(NC(=O)C2CCC(NS(=O)(=O)C(C)(C)C)CC2)cc1 (stereo not drawn) [Ia-57] | 0.93 | 31 |
| CC(C)(C)S(=O)(=O)Nc1ccc(NC(=O)C2CCC(NS(=O)(=O)C(C)(C)C)CC2)cc1 (stereo not drawn) [Ia-58] | 2.5 | 110 |
| CC(C)(C)S(=O)(=O)NC1CCC(C(=O)Nc2cnc(-c3ccccc3)cn2)CC1 (stereo not drawn) [Ia-59] | 0.71 | 16 |
| CC(=O)c1cc2cc(NC(=O)C3CCC(NS(=O)(=O)C(C)(C)C)CC3)ccc2oc1=O (stereo not drawn) [Ia-60] | 0.95 | 10 |
| CN1C(=O)c2ccc(NC(=O)C3CCC(NS(=O)(=O)C(C)(C)C)CC3)cc2C1=O (stereo not drawn) [Ia-61] | 0.68 | 19 |
| CC(C)(C)S(=O)(=O)NC1CCC(C(=O)Nc2ccc(NS(C)(=O)=O)cc2)CC1 (stereo not drawn) [Ia-63] | 3.9 | 370 |
| CC(C)(C)S(=O)(=O)NC1CCC(C(=O)Nc2ccc(NS(=O)(=O)c3ccccc3)cc2)CC1 (stereo not drawn) [Ia-64] | 7.1 | 96 |

From patent US7265130B2, “NPY Y5 antagonist” (Shionogi & Co., Ltd., priority 1999, dated 2007)
